Data from publication PMC5201116, “Bioactive Flavonoids and Catechols as Hif1 and Nrf2 Protein Stabilizers - Implications for Parkinson’s Disease” (Aging and Disease, 2016).

Assays:
[1] = test system: HIF1 ODD-luc reporter (SH-SY5Y cell line); experiment: HIF1 ODD-luc reporter assay; type: cell-based; details: Homo sapiens, SH-SY5Y
Method: (§1) SH-SY5Y cell lines stably expressing HIF1 ODD-luc or Neh2-luc reporters were grown in the DMEM/F12 supplemented with GlutaMAX (Thermo Fisher Scientific) containing 10% FBS, 100 U/ml penicillin, and 100 μg/ml streptomycin and plated into 384-well white flat-bottom plates at 7,000 cell/well in 30 µl serum and incubated overnight at 37°C, 5% CO2. The next day compounds were added to a final concentration of 10 µM and the plates were incubated for 3 hours at 37°C. Reporter activation after 3 h incubation with the studied compound was compared to that for ciclopirox (HIF1 ODD-luc reporter) or TBHQ (Neh2-luc reporter), taken as 100%. Luciferase reporter activity was measured with a SteadyGlo reagent from Promega providing stable reading for 1 h.
(§2) Cells were plated at the density of 25,000 cell per well using a WellMate multichannel dispenser from Matrix (Thermo Fisher Scientific, Waltham, MA) and grown overnight on DMEM/F12+GlutaMAX (100 µl per well). Then an inhibitor was added, and the plates were incubated for a fixed time interval; the medium was removed, cells lysed, and luciferase activity was measured on a SpectraMax M5e platereader (Molecular Devices, Sunnyvale, CA) with BrightGlo™ reagent (Promega, Madison, WI). The reporter activation was normalized to the background luminescence. The effect of 0.5 mM N-acetylcysteine (NAC) was studied by simultaneous addition of 5 µL of 10 mM stock of NAC in water and 2 µL of 50x stock solutions of a flavonoid in DMSO.

[2] = test system: C57Bl6 mice, MPTP model of Parkinson's disease; experiment: Stereological counts of Nissl- and TH-positive neurons in SNpc, MPTP model; type: in vivo, mouse; details: NDGA 100mg/kg/day, Fig. 7
Method: Acute MPTP-intoxication paradigm was used to test the neuroprotective effects of NDGA using male C57Bl6 mice. In this protocol, 10-week-old C57Bl6 mice (n = 8-10 per group) were divided into four different groups consisting of 1) a control group treated with saline alone; 2) a group treated with MPTP alone; 3) a group treated with NDGA alone and; 4) group treated with NDGA in combination with MPTP. NDGA was dissolved in 1:4 ethanol:neobee oil (a derivative of coconut oil). MPTP 10 mg/kg free base was administered intraperitoneally three times a day every two hours. Animals with NDGA in combination with MPTP were administered NDGA by oral gavage with 50 and 100mg/kg/day body weight of the drug in 100 microliter volume once a day for 4 days before MPTP and once a day for 3 days after MPTP. On the day of MPTP NDGA was administered to mice 2 hours before the initiation of MPTP. Animals belonging to MPTP and control groups received the vehicle (ethanol:neobee oil, 1:4) whereas the drug alone group received respective doses of NDGA at the same frequency. All animals were sacrificed on the 7th day after MPTP. […]

[3] = Iron binding constant, calcein displacement assay; type: physicochemical; details: calcein displacement
From the text: Calcein displacement assay in the presence of varied concentrations of flavonoids and catechols has been used. Calcein release from its complex with iron was monitored by fluorescence as described in [26].

[4] = test system: C57Bl6 mice, MPTP model of Parkinson's disease; experiment: Acute MPTP mouse model: striatal dopamine and metabolites by HPLC; type: in vivo
Method: Acute MPTP-intoxication paradigm was used to test the neuroprotective effects of NDGA using male C57Bl6 mice. In this protocol, 10-week-old C57Bl6 mice (n = 8-10 per group) were divided into four different groups consisting of 1) a control group treated with saline alone; 2) a group treated with MPTP alone; 3) a group treated with NDGA alone and; 4) group treated with NDGA in combination with MPTP. NDGA was dissolved in 1:4 ethanol:neobee oil (a derivative of coconut oil). MPTP 10 mg/kg free base was administered intraperitoneally three times a day every two hours. Animals with NDGA in combination with MPTP were administered NDGA by oral gavage with 50 and 100mg/kg/day body weight of the drug in 100 microliter volume once a day for 4 days before MPTP and once a day for 3 days after MPTP. On the day of MPTP NDGA was administered to mice 2 hours before the initiation of MPTP. Animals belonging to MPTP and control groups received the vehicle (ethanol:neobee oil, 1:4) whereas the drug alone group received respective doses of NDGA at the same frequency. All animals were sacrificed on the 7th day after MPTP.
Striatal levels of dopamine (DA) and its metabolites 3, 4-dihydroxyphenylacetic acid (DOPAC), and homovanillic acid (HVA) were measured after sonication and centrifugation in chilled 0.1 M perchloric acid (PCA, 100 µl/mg tissue) as previously described. Briefly, 15 µl supernatant was isocratically eluted through an 80 x 4.6 mm C18 column (ESA, Inc. Chelmsford, MA) with a mobile phase containing 0.1 M LiH2PO4, 0.85 mM 1-octanesulfonic acid and 10% (v/v) methanol and detected by a 2-channel Coulochem II electrochemical detector (ESA, Inc. Chelmsford, MA). Concentrations of dopamine, DOPAC and HVA are expressed as ng per mg protein. The protein concentrations of tissue homogenates were measured according to BCA assay (Pierce Biotech). For MPP+ measurement NDGA was administered at a dose of 100mg/kg/day once daily for four days followed by a dose on the 5th day 30 minutes before MPTP (30mg/kg free base). Striatal tissues were sonicated and centrifuged in 0.1 M PCA and an aliquot of supernatant was injected onto a Brownlee aquapore x 03-224 cation exchange column (Rainin, Woburn, MA). Samples were eluted isocratically with 20 mM boric acid-sodium borate buffer, pH 7.75, containing 3 mM tetrabutylammonium hydrogen sulfate, 0.25 mM 1-heptanesulfonic acid and 10% isopropanol. MPP^+ levels were detected with a fluorescence detector set by excitation at 295 nm and emission at 375nm.

[5] = test system: Neh2-luc reporter (SH-SY5Y cell line); experiment: Neh2-luc reporter assay; type: cell-based; details: Homo sapiens, SH-SY5Y
Method: as §1, §2

[6] = NDGA+MPTP group, NDGA 100mg/kg/day oral, 7th day after MPTP

EC50 [1]: ~2000 nM | Iron complex Diss. Const [3]: 2.5 ± 0.3 µM | EC50 ([5]; Neh2-luc): 2000 nM
Compound: CC(Cc1ccc(O)c(O)c1)C(C)Cc1ccc(O)c(O)c1 (centres unmarked) [compound 28, 4,4'-(2,3-dimethylbutane-1,4-diyl)dibenzene-1,2-diol]
fold induction at 10 µM ([1]; 3 h, at 10 µM, 3 h incubation, read-out: ODD-luc fold activation): 2 | MPTP-induced loss of total (Nissl-positive) and TH-immunopositive neurons in SNpc [2]: significant attenuation | protection against MPTP-induced loss of striatal dopamine, DOPAC and HVA ([4]; NDGA 50mg/kg/day): not | protection against MPTP-induced loss of striatal dopamine, DOPAC and HVA ([4]; NDGA 100mg/kg/day): protected | Striatal DOPAC ([4]; NDGA alone group, oral gavage): 7.59 ± 1.35 ng/mg protein | Striatal DOPAMINE ([4]; NDGA alone group, oral gavage): 88.4 ± 6.2 ng/mg protein | Striatal HVA ([4]; NDGA alone group, oral gavage): 7.5 ± 1.66 ng/mg protein | Striatal DOPAC [4, 6]: 6.04 ± 1.14 ng/mg protein | Striatal DOPAMINE [4, 6]: 55.3 ± 5.7 ng/mg protein | Striatal HVA [4, 6]: 7.4 ± 0.96 ng/mg protein | fold induction at 10 µM ([5]; at 10 µM, 3 h incubation, read-out: Neh2-luc fold activation): 15 ± 1.8
